{"source": "paper PMC3095640", "about": "“Potent Host-Directed Small-Molecule Inhibitors of Myxovirus RNA-Dependent RNA-Polymerases” (PLoS ONE, 2011)", "key": {"in vitro": {"assay": "in vitro", "type": "cell-based, Avian-chicken", "conditions": "chicken; DF-1; highest concentration assessed 75 µM; read-out: CC50, Metabolic Activity", "description": "(§1) A non-radioactive cytotoxicity assay (CytoTox 96 Non-Radioactive Cytotoxicity Assay, Promega) was employed to determine the metabolic activity of cell after exposure to the compound. In a 96-well plate format, 10,000 cells per well were incubated at 37°C for 24 hours in four replicates per concentration tested in the presence of compound in two-fold dilutions starting at 75 µM. Substrate was then added and color development measured at 490 nm using a BioRad plate reader. Values were calculated according to the formula [% toxicity = 100−((experimental-background)/(maximum(vehicle treated)-background)*100)]. Values were plotted in dose-response curves and, if applicable, CC50 concentrations calculated."}, "SOI Influenza A/Texas": {"tested_on": "SOI Influenza A/Texas", "assay": "Virus yield reduction assay, SOI influenza A/Texas", "type": "cell-based, swine-origin influenza virus isolate S-OIV Texas", "conditions": "genome copy numbers of released progeny particles by TaqMan RT-PCR"}, "[1]": {"tested_on": "different established cell lines (HeLa, A549, HepG2, Vero-Slam, MDCK)", "assay": "Metabolic activity of different established cell lines", "type": "cell-based, human, primate, canine", "conditions": "at 75 µM, 24 hours", "description": "as §1"}, "MeV-Alaska [2]": {"tested_on": "MeV-Alaska", "type": "cell-based, measles virus", "conditions": "100 nM, 40 hours"}, "[3]": {"tested_on": "bronchial epithelial cells", "assay": "Metabolic activity of primary human bronchial epithelial cells", "type": "cell-based", "conditions": "24 hours exposure", "description": "as §1"}, "PBMCs": {"tested_on": "PBMCs", "assay": "Metabolic activity of primary human PBMCs", "type": "cell-based", "conditions": "24 hours exposure", "description": "as §1"}, "MeV-Alaska [4]": {"tested_on": "MeV-Alaska", "assay": "Cell priming: pre-treatment, wash-out, then MeV-Alaska infection", "type": "cell-based, measles virus", "conditions": "1.0 µM for 60 minutes"}, "[5]": {"assay": "Cytotoxicity (metabolic activity), Vero-Slam cells", "type": "cell-based", "conditions": "African green monkey, highest concentration assessed 75 µM, read-out: CC50, Toxicity, Metabolic activity", "description": "as §1"}, "[6]": {"assay": "Cytotoxicity (metabolic activity), MDCK", "type": "cell-based, Canine-dog", "conditions": "dog, MDCK cells, highest concentration assessed 75 µM", "description": "as §1"}, "Influenza A/PR/8/34": {"tested_on": "Influenza A/PR/8/34", "assay": "Virus yield reduction assay, influenza A/PR/8/34", "type": "cell-based, influenza A strain PR8/34 (H1N1)", "conditions": "genome copy numbers of released progeny particles by TaqMan RT-PCR"}, "[7]": {"assay": "Metabolic stability in human liver S9 fractions", "type": "in vitro ADME", "description": "JMN3-003 was mixed with liver S9 fractions (protein concentration 2.5 mg/ml) from pooled mixed gender humans (XenoTech) at a final concentration of 1 µM and reactions initiated by the addition of cofactors (1.14 mM NADPH, 1.43 mM glucose-6-phosphate, 1.43 mM uridine 5′-diphosphoglucuronic acid, 9.42 mM potassium chloride, 2.28 mM magnesium chloride) in 100 mM potassium phosphate buffer, pH 7.4. Samples were incubated at 37°C with mixing, aliquots removed after 0, 15, 30 and 60 minutes and subjected to reversed-phase LC-MS/MS (Applied Biosystems API 4000 QTRAP with heated nebulizer; Turbo IonSpray for JMN5-166) analysis. Peak areas were measured to calculate half life and percent of input compound remaining according to the formulas t1/2 = (−0.693/slope of linear regression analysis of log transformed peak area versus) and % input remaining = (peak area of test compound at tx/peak area of test compound at t0)*100. Positive controls to assess the metabolic competency of the liver S9 fractions were 7-Ethoxycoumarin, Propranolol, and Verapamil (Sigma), which were analyzed in parallel to the article. […] Aliquots were removed at distinct time points as indicated and analyzed by LC-MS/MS with detection of the compound at 254 nm. Values are expressed as percent of compound remaining at each time relative to the amount of that compound present at the starting time point."}, "smooth muscle cells": {"tested_on": "smooth muscle cells", "assay": "Metabolic activity of primary human smooth muscle cells", "type": "cell-based", "conditions": "24 hours exposure", "description": "as §1"}, "[8]": {"tested_on": "MeV H and F mediated cell-to-cell fusion", "assay": "MeV glycoprotein-mediated cell-to-cell fusion assay", "parameters": "species or system measles virus", "conditions": "microscopic and luciferase reporter-based"}, "MeV-Alaska [9]": {"tested_on": "MeV-Alaska", "assay": "In vitro virus adaptation (resistance induction)", "type": "cell-based, measles virus", "conditions": "after 90 days of continued viral incubation", "description": "Adaptations were carried out essentially as we have previously described. Briefly, Vero-SLAM cells were infected with MeV-Alaska at an MOI of […] and incubated in the presence of gradually increasing JMN3-003 concentrations starting at 0.5 µM. Equally infected cells treated with the virus polymerase targeted RdRp inhibitor AS-136A were examined in parallel. When cultures became over confluent, cells were reseeded for continued incubation in the presence of the same compound concentration as before. At detection of extensive cell-to-cell fusion, cell-associated viral particles were harvested, diluted 10-fold and used for parallel infections of fresh cell monolayers in the presence of compound at unchanged and doubled concentrations. Cultures treated with the highest compound concentrations in which virus-induced cytopathicity became detectable were used for further adaptation. The approach was terminated after 90 days of continued incubation or when virus-induced cytopathicity was readily detectable in the presence of 30 µM compound in accordance with previous results."}, "[10]": {"assay": "Cytotoxicity (metabolic activity), BHK-21", "type": "cell-based, Rodent-Syrian hamster", "conditions": "Syrian hamster, BHK-21 cells, highest concentration assessed 75 µM", "description": "as §1"}, "Influenza A/WSN": {"tested_on": "Influenza A/WSN", "assay": "Immunodetection of virus-encoded influenza A/WSN M2", "type": "cell-based", "conditions": "100 nM", "description": "Aliquots with equal total concentrations of cleared lysates (20,000×g; 10 min; 4°C) were mixed with 2x-urea buffer (200 mM Tris, pH 6.8; 8 M urea; 5% sodium dodecyl sulfate (SDS); 0.1 mM EDTA; 0.03% bromphenol blue; 1.5% dithiothreitol) and denatured for 25 min at 50°C. Samples were then fractionated on 10% SDS-polyacrylamide gels, blotted to polyvinylidene difluoride (PVDF) membranes (Millipore) and subjected to enhanced chemiluminescence detection (Pierce) using specific antisera directed against phosphorylated or non-phosphorylated cdc2-cyclin B kinase (Cell Signaling Technology), GAPDH (Abcam), the cytosolic tail of the MeV F protein [81], or influenza A/WSN virus M2 (Thermo Scientific). Immunostained PVDF membranes were developed using a ChemiDoc XRS digital imaging system (Bio-Rad) and horseradish peroxidase conjugated anti-species IgG (mouse or rabbit) antibodies. For densitometry, signals were quantified using the QuantityOne software package (Bio-Rad)."}}, "data": [{"compound": "COc1ccc(-n2c(SC(C)C(=O)Nc3ccc(C)cc3Cl)nc3ccccc32)cc1", "note": "(centres unmarked) [JMN3-003]", "values": [{"measurement": "CC50 at 24 h", "setting": "in vitro", "result": "> 75", "unit": "µM"}, {"measurement": "EC50", "setting": "SOI Influenza A/Texas", "result": "0.04 ± 0.01", "unit": "µM"}, {"measurement": "metabolic activity of different established cell lines", "setting": "[1]", "result": "unchanged"}, {"measurement": "reduction of viral mRNA and antigenome copy numbers relative to vehicle", "setting": "MeV-Alaska [2]", "result": "> 100", "unit": "fold"}, {"measurement": "metabolic activity of primary human bronchial epithelial cells", "setting": "[3]", "result": "only slightly affected"}, {"measurement": "metabolic activity of primary human PBMCs", "setting": "PBMCs", "result": "unaffected"}, {"measurement": "inhibitory effect after cell pre-treatment and wash-out", "setting": "MeV-Alaska [4]", "result": "could not detect any substantial inhibitory effect"}, {"measurement": "CC50 at 24 h", "setting": "[5]", "result": "> 75", "unit": "µM"}, {"measurement": "CC50 at 24 h", "setting": "[6]", "result": "> 75", "unit": "µM"}, {"measurement": "EC50", "setting": "Influenza A/PR/8/34", "result": "0.01 ± 0.001", "unit": "µM"}, {"measurement": "half-life at 1 µM", "setting": "[7]; both sexes, human, liver S9 fractions, pH 7.4, human liver S9 fractions, up to 60 minutes, LC-MS/MS, calculated/extrapolated, read-out: half-life (t1/2)", "result": "~3.33", "unit": "h"}, {"measurement": "input material remaining intact", "setting": "[7]; human S-9 fractions, 60-minute exposure, 1 µM", "result": "approximately 80%"}, {"measurement": "metabolic activity of primary human smooth muscle cells", "setting": "smooth muscle cells", "result": "unaffected"}, {"measurement": "MeV glycoprotein-mediated cell-to-cell fusion", "setting": "[8]", "result": "extensive membrane fusion indistinguishable from that seen in vehicle-treated controls"}, {"measurement": "change of the tolerated dose", "setting": "MeV-Alaska [9]", "result": "only marginal increases in the tolerated dose"}, {"measurement": "CC50 at 24 h", "setting": "[10]", "result": "> 75", "unit": "µM"}, {"measurement": "expression of virus-encoded proteins, orthomyxovirus infection", "setting": "Influenza A/WSN", "result": "fully blocked"}]}]}
